This passage reports Emax and EC50 results from patent US11149054B2, “Oxysterols and methods of use thereof” (Sage Therapeutics, Inc., priority 2016, dated 2021).

Like-named read-outs stand apart in the source and are kept apart here.

Assay [1] has as its target GlunN1/GluN2A glutamate receptors (Homo sapiens (Human), UniProt Q05586+Q12879). As to the kind of experiment: Whole-cell patch clamp of mammalian cells (Ionworks Barracuda), positive allosteric modulation, GluN1/GluN2A. The class given is cell-based. As for the experimental part:
(§1) The measurements were performed using Ion Works Barracuda platform following this procedure:
(§2) Electrophysiological Procedures:
(§3) • a) Intracellular solution (mM): 50 mM CsCl, 90 mM CsF, 2 mM MgCl2, 5 mM EGTA, 10 mM HEPES. Adjust to pH 7.2 with CsOH. • b) Extracellular solution, HB-PS (composition in mM): NaCl, 137; KCl, 1.0; CaCl2), 5; HEPES, 10; Glucose, 10; pH adjusted to 7.4 with NaOH (refrigerated until use). • c) Holding potential: −70 mV, potential during agonist/PAM application: −40 mV. Recording Procedure: • a) Extracellular buffer will be loaded into the PPC plate wells (11 μL per well). Cell suspension will be pipetted into the wells (9 μL per well) of the PPC planar electrode. • b) Whole-cell recording configuration will be established via patch perforation with membrane currents recorded by on-board patch clamp amplifiers. • c) Two recordings (scans) will be performed. First, during pre-application of test article alone (duration of pre-application—[…]) and second, during test articles and agonist (EC20 L-glutamate and 30 μM glycine) co-application to detect positive modulatory effects of the test article. […] Potentiating Effect of Positive Allosteric Modulators (PAM) on the Channel
(§4) PAM concentration-response data will be fitted to an equation of the form: % Activation=% L-glutamate EC20+{(% MAX−% L-glutamate EC20)/[1+([Test]/EC50)^N]}, where [Test] will be the concentration of PAM (test article), EC50 will be the concentration of PAM producing half-maximal activation, N will be the Hill coefficient, % L-glutamate EC20 will be the percentage of the current Elicited with L-glutamate EC20, % MAX is the percentage of the current activated with the highest dose of PAM co-admitted with L-glutamate EC20 and % Activation will be the percentage of the current elicited with L-glutamate EC10-30 at each PAM concentration. The maximal amplitude of the evoked currents are measured and defined as Peak Current Amplitude (PCA).
(In general: The patch-clamp technique gives a direct electrical read-out from membranes.)

The target of assay [2] is GluN2B glutamate receptors (Homo sapiens (Human), UniProt Q05586+Q13224). As to the kind of experiment: Whole-cell patch clamp of mammalian cells (Ionworks Barracuda), positive allosteric modulation, GluN2B. The class given is cell-based. The settings on record: for Emax: read-out: Avg Emax 2B (%). The procedure: as §1, §2, §3, §4
Where [3] appears, read: HEK293 cells, % potentiation of current elicited with EC20 L-glutamate and 30 μM glycine, read-out: Avg Emax 2A (%).
Where [4] appears, read: HEK293 cells, co-application with EC20 L-glutamate and 30 μM glycine, 8-point concentration-response, read-out: Avg EC50 2A.
Where [5] appears, read: % potentiation of current elicited with EC20 L-glutamate and 30 μM glycine.
The mark [6] stands for this setting: co-application with EC20 L-glutamate and 30 μM glycine, 8-point concentration-response, read-out: Avg EC50 2B.
Setting [7] is: HEK293, read-out: Avg Emax 2A (%).

GlunN1/GluN2A glutamate receptors, sequence (Q12879 23-1464, other chains not shown): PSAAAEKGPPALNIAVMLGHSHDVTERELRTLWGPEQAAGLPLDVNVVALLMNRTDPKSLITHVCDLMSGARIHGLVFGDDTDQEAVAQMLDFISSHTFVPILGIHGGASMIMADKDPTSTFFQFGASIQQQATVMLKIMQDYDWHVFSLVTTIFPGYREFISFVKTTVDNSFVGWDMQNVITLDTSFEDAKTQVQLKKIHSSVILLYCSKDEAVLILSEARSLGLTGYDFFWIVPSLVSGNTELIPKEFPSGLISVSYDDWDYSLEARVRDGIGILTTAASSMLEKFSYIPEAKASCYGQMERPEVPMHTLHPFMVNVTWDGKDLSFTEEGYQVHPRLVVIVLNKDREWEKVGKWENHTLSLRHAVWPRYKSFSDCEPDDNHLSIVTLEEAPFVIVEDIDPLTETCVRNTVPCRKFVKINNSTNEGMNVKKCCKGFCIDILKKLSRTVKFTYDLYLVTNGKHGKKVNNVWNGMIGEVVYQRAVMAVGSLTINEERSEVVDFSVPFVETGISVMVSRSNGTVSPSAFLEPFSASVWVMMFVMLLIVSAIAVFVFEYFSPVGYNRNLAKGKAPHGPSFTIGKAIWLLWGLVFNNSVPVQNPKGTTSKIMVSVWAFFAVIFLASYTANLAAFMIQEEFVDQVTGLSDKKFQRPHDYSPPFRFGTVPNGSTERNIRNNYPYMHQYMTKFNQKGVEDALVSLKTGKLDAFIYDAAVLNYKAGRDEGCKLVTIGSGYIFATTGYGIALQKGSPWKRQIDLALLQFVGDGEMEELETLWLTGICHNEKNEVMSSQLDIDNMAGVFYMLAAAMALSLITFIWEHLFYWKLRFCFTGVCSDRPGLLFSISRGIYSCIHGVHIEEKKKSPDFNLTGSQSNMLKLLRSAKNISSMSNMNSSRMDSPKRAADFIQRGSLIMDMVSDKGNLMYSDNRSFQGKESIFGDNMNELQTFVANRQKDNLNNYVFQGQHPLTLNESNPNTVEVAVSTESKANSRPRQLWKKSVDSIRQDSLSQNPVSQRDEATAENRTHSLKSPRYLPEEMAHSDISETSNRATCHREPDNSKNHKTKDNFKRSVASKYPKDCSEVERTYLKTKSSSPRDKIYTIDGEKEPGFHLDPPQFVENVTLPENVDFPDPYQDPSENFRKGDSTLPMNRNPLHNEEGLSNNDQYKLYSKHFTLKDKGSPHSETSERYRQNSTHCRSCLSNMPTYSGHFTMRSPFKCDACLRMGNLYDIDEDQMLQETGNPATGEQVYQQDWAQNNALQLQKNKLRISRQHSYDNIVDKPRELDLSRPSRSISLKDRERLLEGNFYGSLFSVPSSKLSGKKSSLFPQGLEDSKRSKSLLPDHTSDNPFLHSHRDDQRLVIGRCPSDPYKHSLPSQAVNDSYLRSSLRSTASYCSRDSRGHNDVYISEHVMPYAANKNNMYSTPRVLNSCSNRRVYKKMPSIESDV
GluN2B glutamate receptors, sequence (Q13224 27-1484, other chains not shown): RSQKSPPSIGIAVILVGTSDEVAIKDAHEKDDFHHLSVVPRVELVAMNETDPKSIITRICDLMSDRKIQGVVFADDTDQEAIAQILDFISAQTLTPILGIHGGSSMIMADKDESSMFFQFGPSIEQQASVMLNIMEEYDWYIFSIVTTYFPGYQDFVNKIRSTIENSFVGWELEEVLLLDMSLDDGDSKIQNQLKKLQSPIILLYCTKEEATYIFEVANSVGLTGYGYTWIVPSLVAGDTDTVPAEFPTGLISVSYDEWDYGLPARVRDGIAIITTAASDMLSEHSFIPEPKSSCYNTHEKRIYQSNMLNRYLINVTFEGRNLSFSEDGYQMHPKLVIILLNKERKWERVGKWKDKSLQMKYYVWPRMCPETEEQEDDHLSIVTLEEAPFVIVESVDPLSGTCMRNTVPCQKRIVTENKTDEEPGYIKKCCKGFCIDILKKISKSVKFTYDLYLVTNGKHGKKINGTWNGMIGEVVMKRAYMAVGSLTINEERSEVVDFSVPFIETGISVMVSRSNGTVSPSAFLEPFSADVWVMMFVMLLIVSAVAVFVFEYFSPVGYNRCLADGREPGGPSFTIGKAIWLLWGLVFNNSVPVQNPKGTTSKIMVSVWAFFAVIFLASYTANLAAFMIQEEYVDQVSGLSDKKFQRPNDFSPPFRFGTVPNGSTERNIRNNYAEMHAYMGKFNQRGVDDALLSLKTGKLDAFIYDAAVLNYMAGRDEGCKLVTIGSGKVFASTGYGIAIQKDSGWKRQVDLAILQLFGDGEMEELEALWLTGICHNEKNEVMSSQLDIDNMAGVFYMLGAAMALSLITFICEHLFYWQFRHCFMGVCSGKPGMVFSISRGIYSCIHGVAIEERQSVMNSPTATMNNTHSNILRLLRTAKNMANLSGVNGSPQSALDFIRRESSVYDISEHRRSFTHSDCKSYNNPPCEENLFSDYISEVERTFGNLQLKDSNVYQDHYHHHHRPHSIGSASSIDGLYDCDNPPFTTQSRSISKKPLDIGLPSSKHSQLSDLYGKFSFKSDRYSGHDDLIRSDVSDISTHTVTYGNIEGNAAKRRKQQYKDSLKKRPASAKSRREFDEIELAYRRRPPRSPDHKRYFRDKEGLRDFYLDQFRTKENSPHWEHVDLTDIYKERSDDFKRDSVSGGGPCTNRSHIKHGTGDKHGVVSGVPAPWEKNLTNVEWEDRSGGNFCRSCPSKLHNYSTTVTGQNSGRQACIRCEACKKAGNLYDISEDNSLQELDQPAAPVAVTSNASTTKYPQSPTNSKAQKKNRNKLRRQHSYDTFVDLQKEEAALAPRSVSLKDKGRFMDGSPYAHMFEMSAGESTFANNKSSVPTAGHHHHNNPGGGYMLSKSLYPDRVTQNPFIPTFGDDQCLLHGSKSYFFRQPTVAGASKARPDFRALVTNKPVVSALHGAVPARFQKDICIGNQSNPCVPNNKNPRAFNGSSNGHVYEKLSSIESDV

As a reminder, the Emax is the maximal effect, on the per cent scale that the assay sets. As usually defined, the EC50 is the concentration that produces a half-maximal response. Consider `C[C@H](CC[C@]1(O)CCOC1)[C@H]1CC[C@H]2[C@@H]3CC[C@H]4C[C@](O)(C(F)(F)F)CC[C@]4(C)[C@H]3CC[C@]12C` [Compound 2707], for which the Emax in assay [1] (setting [3]) came to 113%; in assay [2] (setting [5]), 259%. Moreover, the EC50 in assay [1] (setting [4]) was found to be 119 nM; in assay [2] (setting [6]), 103 nM.
For the molecule `C[C@H](CCC(O)C(F)(F)F)[C@H]1CC[C@H]2[C@@H]3CC[C@H]4C[C@](O)(C(F)(F)F)CC[C@]4(C)[C@H]3CC[C@]12C` (stereo partly shown) [Compound 2918], the half-maximal effective concentration (EC50) in assay [1] is 298 nM; in assay [2], 339 nM. Also, the Emax in assay [1] (setting [3]) was 532%; in assay [2] (setting [5]), 506%.
`C[C@H](CC[C@](C)(O)C(F)(F)F)[C@H]1CC[C@H]2[C@@H]3CC=C4C[C@](O)(C(F)(F)F)CC[C@]4(C)[C@H]3CC[C@]12C` [Compound 3035]: the half-maximal effective concentration (EC50) is 61 nM in assay [1] and 75.7 nM in assay [2].
With `C[C@H](CCC[C@@H](O)C(F)(F)F)[C@H]1CC[C@H]2[C@@H]3CC[C@H]4C[C@](O)(C(F)(F)F)CC[C@]4(C)[C@H]3CC[C@]12C` [Compound 3114], the values for the Emax in assay [1] (setting [3]) and in assay [2] (setting [5]) were 318% and 294%, respectively. Further, the figures for the EC50 in assay [1] (setting [4]) and in assay [2] (setting [6]) were 382 nM and 244 nM, respectively.
For `C[C@H](CC[C@@H](O)C(F)(F)F)[C@H]1CC[C@H]2[C@@H]3CC=C4C[C@](O)(C(F)(F)F)CC[C@]4(C)[C@H]3CC[C@]12C` [Compound 3149], the EC50 in assay [1] came to 69.7 nM; in assay [2], 60.7 nM.
Take `C[C@H](CC[C@@H](C)O)[C@H]1CC[C@H]2[C@@H]3CC=C4C[C@](O)(C(F)(F)F)CC[C@]4(C)[C@H]3CC[C@]12C` [Compound 3266]: the Emax in assay [1] (setting [3]) worked out at 82.6%; in assay [2] (setting [5]) it was 135%. Further, the figures for the half-maximal effective concentration (EC50) in assay [1] (setting [4]) and in assay [2] (setting [6]) were 147 nM and 377 nM, respectively.
With `C[C@H](CC[C@@H](O)C(C)(C)C)[C@H]1CC[C@H]2[C@@H]3CC=C4C[C@](O)(C(F)(F)F)CC[C@]4(C)[C@H]3CC[C@]12C` [Compound 3382], the half-maximal effective concentration (EC50) in assay [1] is 67.6 nM; in assay [2] it was 126 nM.
Regarding `C[C@H](CC[C@@]1(O)CCOC1)[C@H]1CC[C@H]2[C@@H]3CC=C4C[C@](O)(C(F)(F)F)CC[C@]4(C)[C@H]3CC[C@]12C` [Compound 3495], the Emax in assay [1] (setting [7]) worked out at 107%; in assay [2] it was 146%.
For `C[C@H](CC[C@H](O)C(C)(C)C)[C@H]1CC[C@H]2[C@@H]3CC=C4C[C@](O)(C(F)(F)F)CC[C@]4(C)[C@H]3CC[C@]12C` [Compound 3507], the EC50 in assay [1] is 165 nM; in assay [2] it was 191 nM.
Turning to `C[C@H](CC[C@H](O)C(C)(C)C)[C@H]1CC[C@H]2[C@@H]3CC[C@@H]4C[C@](O)(C(F)(F)F)CC[C@]4(C)[C@H]3CC[C@]12C` [Compound 3634], the EC50 in assay [1] is 423 nM; in assay [2] it was 404 nM.
Taken in the same sequence, the figures for `C[C@H](CC[C@@H](O)C(C)(C)C)[C@H]1CC[C@H]2[C@@H]3CC[C@@H]4C[C@](O)(C(F)(F)F)CC[C@]4(C)[C@H]3CC[C@]12C` [Compound 3788] were 1320 nM and 1120 nM.
For `C[C@H](CC[C@]1(O)CC[C@@H](C)CC1)[C@H]1CC[C@H]2[C@@H]3CC[C@H]4C[C@](O)(C(F)(F)F)CC[C@]4(C)[C@H]3CC[C@]12C` [Compound 3886], the Emax in assay [1] (setting [7]) stood at 106%; in assay [2], 164%.
As for `C[C@H](CCC1(O)CCCCCC1)[C@H]1CC[C@H]2[C@@H]3CC[C@H]4C[C@](O)(C(F)(F)F)CC[C@]4(C)[C@H]3CC[C@]12C` [Compound 3983], the half-maximal effective concentration (EC50) was 88.1 nM in assay [1] and 248 nM in assay [2].
For `C[C@H](CCC1(O)CCCCC1)[C@H]1CC[C@H]2[C@@H]3CC[C@H]4C[C@](O)(C(F)(F)F)CC[C@]4(C)[C@H]3CC[C@]12C` [Compound 4023], the results for the EC50 in assay [1] and in assay [2] were 516 nM and 406 nM, respectively. In addition, the Emax was found to be 322% in assay [1] (setting [3]) and 418% in assay [2] (setting [5]).
In the case of `C[C@H](CCCC1(O)CC1)[C@H]1CC[C@H]2[C@@H]3CC[C@H]4C[C@](O)(C(F)(F)F)CC[C@]4(C)[C@H]3CC[C@]12C` [Compound 4115], the 50% effective concentration (EC50) was 91.9 nM in assay [1] and 114 nM in assay [2].
With `C[C@H](CC[C@H](O)C1CCCCC1)[C@H]1CC[C@H]2[C@@H]3CC[C@H]4C[C@](O)(C(F)(F)F)CC[C@]4(C)[C@H]3CC[C@]12C` [Compound 4155], the EC50 in assay [1] was 442 nM; in assay [2], 612 nM. Further, the Emax in assay [1] (setting [3]) amounted to 164%; in assay [2] (setting [5]), 198%.
For the molecule `C[C@H](CC[C@@H](O)C1CCCCC1)[C@H]1CC[C@H]2[C@@H]3CC[C@H]4C[C@](O)(C(F)(F)F)CC[C@]4(C)[C@H]3CC[C@]12C` [Compound 4156], the EC50 in assay [1] and in assay [2] was over 10000 nM throughout. In addition, the Emax worked out at 10.6% in assay [1] (setting [3]) and 20.1% in assay [2] (setting [5]).
In the case of `CC(C)[C@H]1CC[C@@](O)(CC[C@@H](C)[C@H]2CC[C@H]3[C@@H]4CC[C@H]5C[C@](O)(C(F)(F)F)CC[C@]5(C)[C@H]4CC[C@]23C)CC1` [Compound 4258], the EC50 in assay [1] was 1030 nM; in assay [2] it was 640 nM. Further, the Emax in assay [1] (setting [3]) worked out at 184%; in assay [2] (setting [5]), 242%.
Taken in the same sequence, the figures for `CC(C)[C@H]1CC[C@](O)(CC[C@@H](C)[C@H]2CC[C@H]3[C@@H]4CC[C@H]5C[C@](O)(C(F)(F)F)CC[C@]5(C)[C@H]4CC[C@]23C)CC1` [Compound 4259] were over 10000 nM, over 10000 nM, -13.3% and 24.3%.
Take `C[C@H](CCC1(O)CCC(C(C)(C)C)CC1)[C@H]1CC[C@H]2[C@@H]3CC[C@H]4C[C@](O)(C(F)(F)F)CC[C@]4(C)[C@H]3CC[C@]12C` (stereo partly shown) [Compound 4360]: the Emax in assay [1] (setting [3]) was 38.1%; in assay [2] (setting [5]), 14.6%.
`CC[C@H]1CC[C@@](O)(CC[C@@H](C)[C@H]2CC[C@H]3[C@@H]4CC[C@H]5C[C@](O)(C(F)(F)F)CC[C@]5(C)[C@H]4CC[C@]23C)CC1` [Compound 4475]: the EC50 in assay [1] was found to be 461 nM; in assay [2], 266 nM. The figures for the Emax in assay [1] (setting [3]) and in assay [2] (setting [5]) were 364% and 355%, respectively.
Consider `CC[C@H]1CC[C@](O)(CC[C@@H](C)[C@H]2CC[C@H]3[C@@H]4CC[C@H]5C[C@](O)(C(F)(F)F)CC[C@]5(C)[C@H]4CC[C@]23C)CC1` [Compound 4476], for which the concentration for a half-maximal effect (EC50) in assay [1] and in assay [2] was over 10000 nM each time. The figures for the Emax in assay [1] (setting [3]) and in assay [2] (setting [5]) were -3.3% and 10.4%, respectively.
Turning to `CO[C@H]1CC[C@@](O)(CC[C@@H](C)[C@H]2CC[C@H]3[C@@H]4CC[C@H]5C[C@](O)(C(F)(F)F)CC[C@]5(C)[C@H]4CC[C@]23C)CC1` [Compound 4555], the EC50 in assay [1] and in assay [2] was over 10000 nM each time. Moreover, the Emax in assay [1] (setting [3]) was determined as 22.8%; in assay [2] (setting [5]), 31.9%.
Turning to `CO[C@H]1CC[C@](O)(CC[C@@H](C)[C@H]2CC[C@H]3[C@@H]4CC[C@H]5C[C@](O)(C(F)(F)F)CC[C@]5(C)[C@H]4CC[C@]23C)CC1` [Compound 4585], the concentration for a half-maximal effect (EC50) in assay [1] came out at 215 nM; in assay [2], 166 nM. Also, the Emax was 72.2% in assay [1] (setting [3]) and 123% in assay [2] (setting [5]).
As for `COC[C@H]1CC[C@@](O)(CC[C@@H](C)[C@H]2CC[C@H]3[C@@H]4CC[C@H]5C[C@](O)(C(F)(F)F)CC[C@]5(C)[C@H]4CC[C@]23C)CC1` [Compound 4656], the EC50 in assay [1] was determined as 1600 nM; in assay [2] it was 2160 nM. Moreover, the Emax in assay [1] (setting [3]) was found to be 134%; in assay [2] (setting [5]) it was 122%.
Taken in the same sequence, the figures for `COC[C@H]1CC[C@](O)(CC[C@@H](C)[C@H]2CC[C@H]3[C@@H]4CC[C@H]5C[C@](O)(C(F)(F)F)CC[C@]5(C)[C@H]4CC[C@]23C)CC1` [Compound 4657] were 422 nM, 130 nM, 74% and 62.9%.
